Data on six compounds can be found in patent publication US20250049904A1, “IMMUNOSTIMULATORY COMPOSITIONS” (VICTORIA LINK LIMITED, priority 2021, published 2025).

Common to all, as to assay type: in vivo, C57BL/6 mice
Test [1] deals with tissue-resident memory T cells (TRM cells). The experiment in a line: LPX-mRNA vaccination of mice i.v.; antigen-specific TRM, TEM and TCM cells in liver and spleen by flow cytometry. Particulars: agonist in LPX-mOVA vaccine, OT-I transfer, liver 30 days later; for proportion of liver TRM among all vaccine-induced antigen-specific T cells (TRM cell-inducing capability): relative to α-GalCer vaccine.

The test system is the same in test [2]. The test is described as above. Particulars: LPX-mOVA vaccines i.v., OT-I cell transfer, 28 days after vaccination. The method, then:
FIG. 1 provides a graphical representation showing that LPX-mRNA vaccines containing CI058 induce high levels of liver TRM cells. Liposomes were prepared with DOTMA and DOPE lipids and complexed with mRNA encoding chicken ovalbumin (OVA) to give vaccine LPX-mOVA. Additional vaccines were prepared by including either the prototypical NKT cell agonist α-GalCer (LPX-mOVA-α-GalCer) or the derivative CI058, which has BODIPY attached via an —S in the 6 position of the galactose (LPX-mOVA-CI058). Recipient C57BL/6 mice were transferred 50,000 naïve OVA-specific TCR-transgenic CD8+ T cells (OT-I cells) to enhance the precursor frequency of antigen-specific T cells to aid detection of vaccine-induced responses. A day later, groups of mice (n=5-6) were vaccinated intravenously (0.08 nmol) with the different vaccines; a naive mouse was left untreated. After 28 days, mice were killed and liver and spleen collected for analysis of induced T cell response by flow cytometry. Antigen-specific cells were identified using fluorescent MHC/peptide tetramers containing the targeted CD8^+ T cell epitope recognised by OT-I cells, and expression of Ly5.1, a congenic marker expressed by the OT-I mouse strain and not recipient C57BL/6 mice. The antigen-specific cells were further characterised as resident-memory T cells (TRM cells; CD8^+ Ly5.1^+ […] CD62L^low cells), effector memory T cells (TEM cells; CD8^+ Ly5.1^+ CD44^+ CD69^− CD62L^low cells) or central memory cells (TCM cells; CD8^+ Ly5.1^+ CD44^+ CD69^− CD62Lhigh cells). (A) Percentages of TRM, TEM and TCM OT-I cells in each treatment group in liver. Mean±SEM for each T cell subset are shown; statistical analysis relates only to pairwise comparisons of the percentage of TRM cells between the treatment groups. Black bars: TRM cells; white bars: TEM cells; grey bars: TCM cells. *P<0.05, **P<0.01, ***P<0.001, ****P<0.0001. One-way ANOVA. (B) Percentages of RM, TEM and TCM OT-I cells in each treatment group in spleen. (C) Mean number of TRM cells in liver for each treatment group (±SEM); dots represent individual mice. Black bars: TRM cells; white bars: TEM cells; grey bars: TCM cells. *P<0.05, **P<0.01, ***P<0.001, ****P<0.0001. One-way ANOVA.
Dose response of LPX-mOVA-α-GalCer versus LPX-mOVA-CI058 vaccines. Analysis was in C57BL/6 mice, without transfer of OT-I cells, so endogenous T cell responses were monitored on a normal T cell repertoire. Groups of 5 mice were used, and vaccines were administered intravenously. After 28 days, mice were killed and liver tissue collected for analysis of induced T cell response by flow cytometry. Antigen-specific cells were identified using fluorescent MHC/peptide tetramers, and further characterised as resident-memory T cells (TRM CD8^+ CD44^+ CD69^+ CXCR6^+ CD49a^+ CD62L^low cells), effector memory T cells (TEM CD8^+ CD44^+ CD69^− KLRG1^+ CXCR3^+ CD62L^low cells) or central memory cells (TCM CD8^+ CD44^+ CD69^− CD62L^high cells). At the same timer, NKT cells in the liver were also evaluated using fluorescent CD1d/α-GalCer tetramers. These were characterised for expression of different markers of activation, including PD-1 (only the latter is shown here). White circles: LPX-mOVA-α-GalCer; black circles: LPX-mOVA-CI058. (A) Graph showing mean number of TRM cells in liver for each treatment group (±SEM) overdose range. ****P<0.0001. (B) Graph showing mean level of expression of the “invariant” NKT cell-associated TCR for each treatment group (±SEM), defined as level of binding of fluorescent CD1d/α-GalCer tetramers and expressed as mean fluorescence index. ****P<0.0001 (C) Graph showing mean level of expression of PD-1 on NKT cells for each treatment group (±SEM). **P<0.01
To examine whether a prodrug mechanism is involved in enhanced TRM cell induction, LPX-mOVA-CI058 vaccines were compared to vaccines containing different NKT cell agonist prodrugs. […]

For a further test, the system named is liver TRM cells. The experiment in a line: LNP-mRNA vaccines, prime and boost; TRM cells in liver and spleen. Particulars: i.m. and i.v. Here is the method: Vaccines were prepared with mRNA encoding OVA encapsulated in LNPs (LNP-mOVA-CI058). Groups of mice (n=5) were vaccinated twice, with an interval of either two weeks, or eight weeks, and then liver and spleen were collected for analysis of T cell responses 28 days after the last dose. (A) Percentages of antigen-specific TRM cells, TEM cells and TCM cells are shown for liver. Black bars: TRM cells; white bars: TEM cells; grey bars: TCM cells. (B) Percentages of antigen-specific TRM cells, TEM cells and TCM cells are shown for spleen. Black bars: TRM cells; white bars: TEM cells; grey bars: TCM cells. (C) Mean number of TRM cells in liver for each treatment group (±SEM); dots represent individual mice. *P<0.05.
Vaccines were prepared with mRNA encoding OVA encapsulated in LNPs (LNP-mOVA-CI536). Groups (n=9-10) of naïve C57BL/6 mice (i.e., no OT-I transfer) were vaccinated once, or twice with an interval of two weeks, with the liver and spleen collected for analysis of T cell responses 28 days after the last dose. (A) Numbers of antigen-specific TRM cells for liver. […] Data were log transformed and analysed by One-way ANOVA with Tukey's post test **P<0.01, ***P<0.001, ****P<0.0001. […]
LNP-mRNA vaccines comprising an ionizable lipid are an established formulation strategy to deliver mRNA vaccines safely and effectively. Therefore, the capacity of LNP-mRNA vaccines containing CI536 and the ionizable lipid DLin-MC3-DMA to stimulate liver TRM was evaluated. […] The memory T cell responses were assessed 28 days after the prime and boost so the impact of the second dose could be assessed. […]
Lymphocytes were stained with monoclonal antibodies for: CD8a (53-6.7), Ly5.1 (A20), CD44 (IM7), CXCR6 (SA051D1), CX3CR1 (SA011F11), from BioLegend (Australian Biosearch, Karrinyup, WA. Australia), and CD62L (MEL-14) and CD69 (H1.2F3), from eBioscience (Jomar Life Research, Scoresby, VIC, Australia). […] Single-color positive control samples were used to adjust compensation and cells were analyzed by flow cytometry on a LSR Fortessa (BD Biosciences), or LSRII SORP using Flowjo software (Tree Star Inc.).

`CCCCCCCCCCCCCCCCCCCCCCCCCC(=O)N[C@@H](CO[C@H]1OC(CN)[C@H](O)C(O)C1O)[C@H](O)[C@H](O)CCCCCCCCCCCCCC` (stereo partly drawn) [CN168]: the “proportion of liver TRM among all vaccine-induced antigen-specific T cells (TRM cell-inducing capability)” value (“proportion … (TRM cell-inducing capability)” below) in test [1] was “significantly enhanced relative to vaccines with α-GalCer”.

As to `CCCCCCCCCCCCCCCCCCCCCCCCCC(=O)N[C@@H](CO[C@H]1O[C@H](CO)[C@H](O)[C@H](O)[C@H]1O)[C@H](O)[C@H](O)CCCCCCCCCCCCCC` [α-GalCer, reference compound], the “proportion of TRM cells among antigen-specific T cells in liver and spleen” value in test [2] is “low proportions of TRM cells in liver and spleen”.

As for `CCCCCCCCCCCCCCCCCCCCCCCCCC(=O)N[C@@H](CO[C@H]1O[C@H](CS)[C@H](O)[C@H](O)[C@H]1O)[C@H](O)[C@H](O)CCCCCCCCCCCCCC` [CN237], the “proportion … (TRM cell-inducing capability)” value in test [1] was “significantly enhanced relative to vaccines with α-GalCer”.

In the case of `CCCCCCCCCCCCCCCCCCCCCCCCCC(=O)N[C@@H](CO[C@H]1O[C@H](CSCC(N)=O)[C@H](O)[C@H](O)[C@H]1O)[C@H](O)[C@H](O)CCCCCCCCCCCCCC` [CI536, (2S,3S,4R)-1-(6-Deoxy-6-((2-amino-2-oxoethyl)thio)-α-D-galactopyranosyloxy)-2-hexacosanoylamino-3,4-octadecandiol], in the test with liver TRM cells (LNP with DLin-MC3-DMA, 28 days), the “proportion of TEM in the spleen” value is on record as “higher proportion of TEM”. The “proportion of TRM in liver compared to spleen” value in the test with liver TRM cells (LNP with DLin-MC3-DMA, prime or prime-boost, no T cell transfer, 28 days) was “increased proportion of liver TRM in the liver as compared to the spleen”. In addition, in the test with liver TRM cells (boosted groups, two-week interval, vs PBS control), the “number of liver TRM” value is “highest number of liver TRM compared to PBS control group”.

`CCCCCCCCCCCCCCCCCCCCCCCCCC(=O)N[C@@H](CO[C@H]1OC(CSCCCCCNC(=O)OCc2c3ccccc3cc3ccccc23)[C@H](O)C(O)[C@@H]1O)[C@H](O)[C@H](O)CCCCCCCCCCCCCC` (stereo partly drawn) [CI540]: in test [1], the “overall TRM cell accumulation in the liver” value was “All but two of the 6'S-substituted agonists (CI534, CI540)”.

`CCCCCCCCCCCCCCCCCCCCCCCCCC(=O)N[C@@H](CO[C@H]1OC(CSCCCCCNC(=O)CCC2=C3C(C)=CC(C)=[N+]3[B-](F)(F)n3c(C)cc(C)c32)[C@H](O)C(O)[C@@H]1O)[C@H](O)[C@H](O)CCCCCCCCCCCCCC` (stereo partly drawn) [CI534]: in test [1], the “overall TRM cell accumulation in the liver” value is “All but two of the 6'S-substituted agonists (CI534, CI540)” and the “proportion … (TRM cell-inducing capability)” value is “significantly enhanced relative to vaccines with α-GalCer”.
